Assays:
TRKA = TRKA (Homo sapiens (Human), UniProt P04629); assay: KINOMEscan kinase binding assay (DiscoveRx)
Description: (§1) Kinase binding assays were performed at DiscoveRx using the general KINOMEscan Kd Protocol (Fabian, M. A. et al., “A small molecule-kinase interaction map for clinical kinase inhibitors,” Nat. Biotechnol. 2005, 23(3):329-36). For most assays, kinase-tagged T7 phage strains were prepared in an E. coli host derived from the BL21 strain. E. coli were grown to log-phase and infected with T7 phage and incubated with shaking at 32° C. until lysis. The lysates were centrifuged and filtered to remove cell debris. The remaining kinases were produced in HEK-293 cells and subsequently tagged with DNA for qPCR detection. Streptavidin-coated magnetic beads were treated with biotinylated small molecule ligands for 30 minutes at room temperature to generate affinity resins for kinase assays. The liganded beads were blocked with excess biotin and washed with blocking buffer (SeaBlock (Pierce), 1% BSA, 0.05% Tween 20, 1 mM DTT) to remove unbound ligand and to reduce nonspecific binding. […] All reactions were performed in polystyrene 96-well plates in a final volume of 0.135 mL. […] The beads were then re-suspended in elution buffer (1×PBS, 0.05% Tween 20, 0.5 μM non-biotinylated affinity ligand) and incubated at room temperature with shaking for 30 minutes. The kinase concentration in the eluates was measured by qPCR.

ROS1 = ROS1 (Homo sapiens (Human), UniProt P08922); assay: KINOMEscan kinase binding assay (DiscoveRx)
Description: as §1

[1] = system: T cell lymphoma Karpas-299 cell line (harboring endogenous NPM-ALK fusion gene); assay: Karpas-299 cell proliferation assay (CellTiter-Glo); format: cell-based; conditions: Homo sapiens, 72 hours incubation, read-out: Karpas 299 cell proli. IC50
ALK = ALK (Homo sapiens (Human), UniProt Q9UM73); assay: KINOMEscan kinase binding assay (DiscoveRx)
Description: (§2) For most assays, kinase-tagged T7 phage strains were prepared in an E. coli host derived from the BL21 strain. E. coli were grown to log-phase and infected with T7 phage and incubated with shaking at 32° C. until lysis. The lysates were centrifuged and filtered to remove cell debris. The remaining kinases were produced in HEK-293 cells and subsequently tagged with DNA for qPCR detection. […] The liganded beads were blocked with excess biotin and washed with blocking buffer (SeaBlock (Pierce), 1% BSA, 0.05% Tween 20, 1 mM DTT) to remove unbound ligand and to reduce nonspecific binding. […] All reactions were performed in polystyrene 96-well plates in a final volume of 0.135 mL. […] The kinase concentration in the eluates was measured by qPCR.

[2] = system: Essential thrombocythemia cell line SET-2 cells (harboring endogenous JAK2 point mutation); assay: SET-2 cell proliferation assay (CellTiter-Glo); format: cell-based; conditions: Homo sapiens, 72 hours incubation, read-out: SET2 cell proli. IC50
[3] = system: Colorectal cell line KM12 (harboring endogenous TPM3-TRKA fusion gene); assay: KM12 cell proliferation assay (CellTiter-Glo); format: cell-based; conditions: Homo sapiens, 72 hours incubation, read-out: KM 12 cell prolif. IC50
Description: (§3) Colorectal cell lines KM 12 (harboring endogenous TPM3-TRKA fusion gene) cells were cultured in DMEM medium, supplemented with 10% fetal bovine serum and 100 U/mL of penicillin/streptomycin. 5000 cells were seeded in 384 well white plate for 24 hours before compounds treatment. Cell proliferation was measured using CellTiter-Glo luciferase-based ATP detection assay (Promega) following the manufactures's protocol after 72 hours incubation. IC50 determinations were performed using GraphPad Prism software (GraphPad, Inc., San Diego, Calif.).
as §3, with “Alternatively: Colorectal” for “Colorectal”, “line KM12” for “lines KM 12”, “penicillin/streptomycin. […]” for “penicillin/streptomycin.”

JAK2 = JAK2 (Homo sapiens (Human), UniProt O60674); assay: KINOMEscan kinase binding assay (DiscoveRx)
Description: as §2

Chain of ROS1 (P08922 28-2347): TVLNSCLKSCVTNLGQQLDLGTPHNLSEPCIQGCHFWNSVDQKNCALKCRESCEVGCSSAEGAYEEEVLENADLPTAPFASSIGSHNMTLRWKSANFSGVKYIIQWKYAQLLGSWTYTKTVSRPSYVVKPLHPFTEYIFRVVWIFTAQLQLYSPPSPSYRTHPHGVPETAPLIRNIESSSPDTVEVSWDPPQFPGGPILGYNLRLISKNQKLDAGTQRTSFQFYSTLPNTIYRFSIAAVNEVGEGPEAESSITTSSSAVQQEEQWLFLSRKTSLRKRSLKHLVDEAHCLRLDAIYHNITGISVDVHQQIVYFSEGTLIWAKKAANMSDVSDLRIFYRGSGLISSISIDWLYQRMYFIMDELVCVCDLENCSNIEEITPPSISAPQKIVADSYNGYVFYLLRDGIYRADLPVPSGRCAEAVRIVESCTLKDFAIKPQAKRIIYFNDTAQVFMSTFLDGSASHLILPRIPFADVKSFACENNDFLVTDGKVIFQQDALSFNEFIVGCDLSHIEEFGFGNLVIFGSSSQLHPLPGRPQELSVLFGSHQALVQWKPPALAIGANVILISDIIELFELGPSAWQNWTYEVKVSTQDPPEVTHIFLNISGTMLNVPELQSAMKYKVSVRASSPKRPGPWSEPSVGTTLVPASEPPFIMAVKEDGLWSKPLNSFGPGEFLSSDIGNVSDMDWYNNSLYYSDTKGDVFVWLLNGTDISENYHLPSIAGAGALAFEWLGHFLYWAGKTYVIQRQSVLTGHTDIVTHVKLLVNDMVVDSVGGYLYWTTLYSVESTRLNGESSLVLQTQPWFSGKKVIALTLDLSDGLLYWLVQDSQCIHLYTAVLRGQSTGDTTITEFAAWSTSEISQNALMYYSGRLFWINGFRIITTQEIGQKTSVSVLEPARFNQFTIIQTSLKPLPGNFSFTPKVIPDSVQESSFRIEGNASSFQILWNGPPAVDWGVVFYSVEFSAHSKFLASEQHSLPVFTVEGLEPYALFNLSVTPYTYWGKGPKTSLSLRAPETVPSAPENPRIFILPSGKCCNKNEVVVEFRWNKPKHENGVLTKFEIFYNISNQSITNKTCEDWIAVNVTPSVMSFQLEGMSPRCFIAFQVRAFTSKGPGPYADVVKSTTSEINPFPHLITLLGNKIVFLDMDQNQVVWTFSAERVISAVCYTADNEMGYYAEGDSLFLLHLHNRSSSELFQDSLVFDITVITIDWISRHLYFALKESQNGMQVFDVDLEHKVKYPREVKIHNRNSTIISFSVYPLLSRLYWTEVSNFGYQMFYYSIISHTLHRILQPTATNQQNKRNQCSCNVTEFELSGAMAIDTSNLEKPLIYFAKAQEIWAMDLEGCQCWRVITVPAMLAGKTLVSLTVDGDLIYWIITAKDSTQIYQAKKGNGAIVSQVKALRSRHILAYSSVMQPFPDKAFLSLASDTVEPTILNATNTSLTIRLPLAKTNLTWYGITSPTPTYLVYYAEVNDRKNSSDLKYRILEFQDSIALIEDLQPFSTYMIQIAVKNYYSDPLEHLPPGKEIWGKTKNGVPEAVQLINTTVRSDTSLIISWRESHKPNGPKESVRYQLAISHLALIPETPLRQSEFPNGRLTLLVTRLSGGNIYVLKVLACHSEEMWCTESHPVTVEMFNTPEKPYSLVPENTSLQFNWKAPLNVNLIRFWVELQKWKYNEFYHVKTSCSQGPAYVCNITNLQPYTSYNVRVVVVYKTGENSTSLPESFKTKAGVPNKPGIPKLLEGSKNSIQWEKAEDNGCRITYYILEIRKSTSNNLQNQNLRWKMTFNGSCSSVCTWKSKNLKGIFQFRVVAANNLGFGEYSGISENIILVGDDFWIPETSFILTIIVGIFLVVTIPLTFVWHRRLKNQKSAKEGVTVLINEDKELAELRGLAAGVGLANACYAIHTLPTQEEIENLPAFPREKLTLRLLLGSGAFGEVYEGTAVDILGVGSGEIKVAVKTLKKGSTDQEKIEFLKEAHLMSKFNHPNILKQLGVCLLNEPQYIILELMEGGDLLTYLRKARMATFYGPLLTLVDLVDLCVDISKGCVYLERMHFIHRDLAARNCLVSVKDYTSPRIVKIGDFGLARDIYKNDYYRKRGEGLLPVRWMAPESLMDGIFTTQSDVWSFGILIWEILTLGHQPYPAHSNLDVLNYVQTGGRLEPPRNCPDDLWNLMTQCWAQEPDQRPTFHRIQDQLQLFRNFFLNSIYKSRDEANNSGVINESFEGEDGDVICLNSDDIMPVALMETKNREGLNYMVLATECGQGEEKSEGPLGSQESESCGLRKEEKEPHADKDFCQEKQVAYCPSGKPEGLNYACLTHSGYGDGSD
Chain of TRKA (P04629 33-796): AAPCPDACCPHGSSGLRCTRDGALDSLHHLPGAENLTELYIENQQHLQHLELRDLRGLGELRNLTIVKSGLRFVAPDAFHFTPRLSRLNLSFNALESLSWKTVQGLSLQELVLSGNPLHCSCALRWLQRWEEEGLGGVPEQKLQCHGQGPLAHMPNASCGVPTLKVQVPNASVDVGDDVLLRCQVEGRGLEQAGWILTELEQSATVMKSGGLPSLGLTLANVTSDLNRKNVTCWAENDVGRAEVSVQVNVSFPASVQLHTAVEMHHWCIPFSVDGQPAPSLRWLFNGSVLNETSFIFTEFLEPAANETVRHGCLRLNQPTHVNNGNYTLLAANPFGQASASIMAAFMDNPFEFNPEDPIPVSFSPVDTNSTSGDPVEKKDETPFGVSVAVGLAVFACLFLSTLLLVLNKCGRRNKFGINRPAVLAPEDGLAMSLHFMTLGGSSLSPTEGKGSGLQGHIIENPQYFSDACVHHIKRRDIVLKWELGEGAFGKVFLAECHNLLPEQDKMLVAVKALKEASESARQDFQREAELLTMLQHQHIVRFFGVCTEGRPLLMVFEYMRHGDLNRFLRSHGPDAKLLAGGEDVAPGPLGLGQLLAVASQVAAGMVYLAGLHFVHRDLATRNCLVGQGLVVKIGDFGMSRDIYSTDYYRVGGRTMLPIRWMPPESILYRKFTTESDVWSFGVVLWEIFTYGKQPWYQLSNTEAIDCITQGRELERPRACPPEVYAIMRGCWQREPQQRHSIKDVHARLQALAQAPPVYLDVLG
Chain of JAK2 (O60674 whole entry): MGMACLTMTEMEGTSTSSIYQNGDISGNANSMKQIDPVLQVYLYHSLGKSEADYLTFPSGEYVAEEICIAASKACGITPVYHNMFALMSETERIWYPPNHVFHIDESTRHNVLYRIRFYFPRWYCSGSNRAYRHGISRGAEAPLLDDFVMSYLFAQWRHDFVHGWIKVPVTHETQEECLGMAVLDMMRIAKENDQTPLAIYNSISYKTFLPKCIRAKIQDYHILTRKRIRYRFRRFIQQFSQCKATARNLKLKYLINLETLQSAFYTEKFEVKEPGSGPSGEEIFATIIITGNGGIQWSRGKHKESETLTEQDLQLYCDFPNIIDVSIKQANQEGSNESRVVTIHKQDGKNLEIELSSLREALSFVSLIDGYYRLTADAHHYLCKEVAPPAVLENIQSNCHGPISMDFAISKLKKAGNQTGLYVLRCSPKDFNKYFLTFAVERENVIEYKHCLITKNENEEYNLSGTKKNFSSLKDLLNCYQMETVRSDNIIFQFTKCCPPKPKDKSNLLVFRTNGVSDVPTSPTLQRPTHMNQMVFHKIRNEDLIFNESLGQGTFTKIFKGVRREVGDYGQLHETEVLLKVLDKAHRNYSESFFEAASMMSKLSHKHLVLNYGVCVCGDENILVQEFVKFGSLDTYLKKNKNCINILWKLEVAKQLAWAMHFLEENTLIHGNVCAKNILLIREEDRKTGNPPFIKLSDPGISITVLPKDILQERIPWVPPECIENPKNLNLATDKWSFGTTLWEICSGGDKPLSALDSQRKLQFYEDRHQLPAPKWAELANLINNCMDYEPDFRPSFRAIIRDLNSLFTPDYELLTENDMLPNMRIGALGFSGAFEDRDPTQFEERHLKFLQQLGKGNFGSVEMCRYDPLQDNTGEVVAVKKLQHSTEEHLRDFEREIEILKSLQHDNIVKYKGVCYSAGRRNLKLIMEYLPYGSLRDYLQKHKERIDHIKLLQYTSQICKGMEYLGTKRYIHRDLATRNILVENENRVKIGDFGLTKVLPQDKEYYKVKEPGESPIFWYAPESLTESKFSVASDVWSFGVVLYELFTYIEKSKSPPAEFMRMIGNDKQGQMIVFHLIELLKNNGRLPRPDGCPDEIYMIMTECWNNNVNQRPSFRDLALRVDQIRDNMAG

Kd (TRKA) [nM]	Kd (ROS1) [nM]	IC50 [1] [nM]	Kd (ALK) [nM]	Kd (JAK2) [nM]	Compound	IC50 [2] [nM]	IC50 [3] [nM]
0.086		2800		3.7	CCN1Cc2cc(F)ccc2OCCNC(=O)c2cnn3ccc1nc23 [Example 43, 14-ethyl-11-fluoro-6,7,13,14-tetrahydro-1,15-ethenopyrazolo[4,3-f][1,4,8,10]benzoxatriazacyclotridecin-4(5H)-one]	1700	2.6
0.082		> 10000		7.8	CC(C)N1Cc2cc(F)ccc2OCCNC(=O)c2cnn3ccc1nc23 [Example 45, 11-fluoro-14-(propan-2-yl)-6,7,13,14-tetrahydro-1,15-ethenopyrazolo[4,3-f][1,4,8,10]benzoxatriazacyclotridecin-4(5H)-one]	8000	0.35
0.2		4100		0.57	O=C1NCCOc2ccc(F)cc2CNc2ccn3ncc1c3n2 [Example 50, 11-fluoro-6,7,13,14-tetrahydro-1,15-ethenopyrazolo[4,3-f][1,4,8,10]benzoxatriazacyclotridecin-4(5H)-one]	6000	74
6.5	62	7800	270		CC1Nc2ccn3ncc(c3n2)C(=O)NCCOc2ccc(F)c(Cl)c21 (stereo not drawn) [Example 52, 12-chloro-11-fluoro-13-methyl-6,7,13,14-tetrahydro-1,15-ethenopyrazolo[4,3-f][1,4,8,10]benzoxatriazacyclotridecin-4(5H)-one]	3600	52
0.015		3900		6.5	CN1Cc2cc(F)ccc2OCCCNC(=O)c2cnn3ccc1nc23 [Example 75, 12-fluoro-15-methyl-5,6,7,8,14,15-hexahydro-4H-1,16-ethenopyrazolo[4,3-g][1,5,9,11]benzoxatriazacyclotetradecin-4-one]	4440	0.6
		281	14	0.74	O=C1NCCOc2ccc(F)cc2C(CO)Nc2ccn3ncc1c3n2 (stereo not drawn) [Example 98, 11-fluoro-13-(hydroxymethyl)-6,7,13,14-tetrahydro-1,15-ethenopyrazolo[4,3-f][1,4,8,10]benzoxatriazacyclotridecin-4(5H)-one]	808	7.4
		1960	28	1.9	O=C1NCCCOc2ccc(F)cc2CCc2ccn3ncc1c3n2 [Example 103, 12-fluoro-5,6,7,8,14,15-hexahydro-4H-1,16-ethenopyrazolo[4,3-g][1,5,9]benzoxadiazacyclotetradecin-4-one]	> 10000	15
		225			C[C@H]1COc2ccc(F)cc2[C@@H](C)Nc2ccn3ncc(c3n2)C(=O)N1 [Example 109, (6S,13R)-11-fluoro-6,13-dimethyl-6,7,13,14-tetrahydro-1,15-ethenopyrazolo[4,3-f][1,4,8,10]benzoxatriazacyclotridecin-4(5H)-one]	398	0.86
		163			C[C@@H]1COc2ccc(F)cc2[C@@H](C)Nc2ccn3ncc(c3n2)C(=O)N1 [Example 110, (6R,13R)-11-fluoro-6,13-dimethyl-6,7,13,14-tetrahydro-1,15-ethenopyrazolo[4,3-f][1,4,8,10]benzoxatriazacyclotridecin-4(5H)-one]	219	0.7
		329			C[C@H]1CNC(=O)c2cnn3ccc(nc23)N[C@H](CO)c2cc(F)ccc2O1 [Example 111, (7S,13S)-11-fluoro-13-(hydroxymethyl)-7-methyl-6,7,13,14-tetrahydro-1,15-ethenopyrazolo[4,3-f][1,4,8,10]benzoxatriazacyclotridecin-4(5H)-one]	2000	76

Second part, the compound before the results:

Compound	Kd (TRKA) [nM]	Kd (ROS1) [nM]	IC50 [1] [nM]	Kd (ALK) [nM]	Kd (JAK2) [nM]	IC50 [2] [nM]	IC50 [3] [nM]
CC1Oc2ccn3ncc(c3n2)C(=O)NCCOc2ccc(F)c(Cl)c21 (stereo not drawn) [Example 11-1, 12-chloro-11-fluoro-13-methyl-6,7-dihydro-13H-1,15-ethenopyrazolo[4,3-f][1,10,4,8] benzodioxadiazacyclotridecin-4(5H)-one]	1900	1900	> 10000	> 30000		> 10000	> 10000
CN1Cc2c(ccc(F)c2Cl)OCCNC(=O)c2cnn3ccc1nc23 [Example 39, 12-chloro-11-fluoro-14-methyl-6,7,13,14-tetrahydro-1,15-ethenopyrazolo[4,3-f][1,4,8,10]benzoxatriazacyclotridecin-4(5H)-one]	0.23	4.7	3800	180	27	8800	3.8
Cc1nn2ccc3nc2c1C(=O)NCCOc1ccc(F)cc1CN3C [Example 40, 11-fluoro-3,14-dimethyl-6,7,13,14-tetrahydro-1,15-ethenopyrazolo[4,3-f][1,4,8,10]benzoxatriazacyclotridecin-4(5H)-one]		410	> 10000	600		> 10000	204
CN1Cc2cc(F)ccc2OCCNC(=O)c2cnc3ccc1nn23 [Example 42, 10-fluoro-7-methyl-7,8,15,16-tetrahydro-3,6-ethenoimidazo[5,1-f][1,4,7,8,10]benzoxatetraazacyclotridecin-17(14H)-one]	0.088		3400			2000	4
CN1Cc2ccccc2OCCNC(=O)c2cnn3ccc1nc23 [Example 49, 14-methyl-6,7,13,14-tetrahydro-1,15-ethenopyrazolo[4,3-f][1,4,8,10]benzoxatriazacyclotridecin-4(5H)-one]	0.14		3900		24	7000	6.7
CN1Cc2cc(F)ccc2SCCNC(=O)c2cnn3ccc1nc23 [Example 104, 11-fluoro-14-methyl-6,7,13,14-tetrahydro-1,15-ethenopyrazolo[4,3-f][1,4,8,10]benzothiatriazacyclotridecin-4(5H)-one]			5750			2350	0.3
CN1CCC(N2Cc3cc(F)ccc3OCCNC(=O)c3cnn4ccc2nc34)C1 (stereo not drawn) [Example 105, 11-fluoro-14-(1-methylpyrrolidin-3-yl)-6,7,13,14-tetrahydro-1,15-ethenopyrazolo[4,3-f][1,4,8,10]benzoxatriazacyclotridecin-4(5H)-one]			> 5000			> 10000	500
CN1Cc2cc(F)ccc2[S+]([O-])CCNC(=O)c2cnn3ccc1nc23 (stereo not drawn) [Example 106, 11-fluoro-14-methyl-6,7,13,14-tetrahydro-1,15-ethenopyrazolo[4,3-f][1,4,8,10]benzothiatriazacyclotridecin-4(5H)-one 8-oxide]			> 10000			> 10000	176
CN1Cc2cc(F)ccc2S(=O)(=O)CCNC(=O)c2cnn3ccc1nc23 [Example 107, 11-fluoro-14-methyl-6,7,13,14-tetrahydro-1,15-ethenopyrazolo[4,3-f][1,4,8,10]benzothiatriazacyclotridecin-4(5H)-one 8,8-dioxide]			> 10000			3000	75.6
C[C@H]1CNC(=O)c2cnn3ccc(nc23)CCc2cc(F)ccc2O1 [Example 108, (7S)-11-fluoro-7-methyl-6,7,13,14-tetrahydro-1,15-ethenopyrazolo[4,3-f][1,4,8]benzoxadiazacyclotridecin-4(5H)-one]			619			870	3.6

Source: patent US10246466B2, “Diaryl macrocycles as modulators of protein kinases” (TP THERAPEUTICS, INC., priority 2014, dated 2019)
